The values that follow come from patent publication EP0640690A1, “Monoclonal antibodies specific for 5-dihydrotestosterone” (ELI LILLY AND COMPANY, priority 1993, dated 1995).

Assay [1] deals with 5-α-reductase enzyme from a female rat liver preparation. Briefly: 5-α-reductase inhibitor assay: 5-DHT formed from testosterone measured by MoAb 276-1 ELISA. The assay is classed as biochemical. As to conditions: concentration inhibiting 100% of activity; testosterone substrate, NADPH, pH 6.5, 37°C, 20 minutes; one experiment. How it is done: This reaction mixture was incubated at 37°C for 20 minutes. The enzyme was then inactivated by incubating the reaction mixture at 80°C for 10 minutes. […] In additon, serial dilutions of the reaction mixture were made and 100 µl of each of these dilutions was added to separate wells. To each well was added 100 µl (0.35 µg) of MoAb 276-1. This plate was then incubated at 37°C for 2 hours. After this incubation period, the plate was washed four times with phosphate buffered saline (PBS). After the washing, 200 µl of anti-mouse antibody/alkaline phosphatase conjugate was added to each well. This was then incubated at 37°C for 1 hour. After the incubation each well was washed four times with PBS. To each well was then added 200 µl of p-nitrophenylphosphate. This reaction was then incubated for one hour at 37°C. Spectrophotometric measurement of each well was then performed, reading at 410 nm. This measurement provided the baseline activity of 5-α-reductase activity without an inhibitor. […] This compound was prepared as described in U.S. Patent 5,239,075, issued August 24, 1993, which is herein incorporated by reference.
On the technique in general: In an ELISA, binding on a coated surface is turned into a signal by an enzyme label.

For assay [2], the system named is monoclonal antibody MoAb 276-1 (anti-5-dihydrotestosterone, hybridoma ATCC HB 11410). Kind of assay: competitive ELISA: competition with bound avidin/5-DHT complex for the antibody. The assay is classed as binding, mouse. The settings on record: for IC50: concentration inhibiting 50% of antibody binding to immobilized avidin/5-DHT, read-out: IC₅₀. As to the method:
The usual method of quantifying specificity of an antibody is by way of a competitive ELISA assay, a technique which is well known to one of skill in the art. In such an assay the reactivity is determined by binding an avidin/5-DHT complex to a support, such as a well in a microtiter plate, as described infra. A limited amount of anti-5-DHT antibody (such as MoAb 276-1) is then added simultaneously with differing concentrations of 5-dihydrotestosterone, which competes with the bound 5-DHT for the antibody. Unbound antibody is then removed from the wells. The concentration of 5-dihydrotestosterone which inhibits 50% of the binding of the antibody is designated as the IC₅₀. The experiment is run in parallel using testosterone in place of the 5-dihydrotestosterone. The IC₅₀ of the testosterone is then compared with the IC₅₀ of the 5-dihydrotestosterone to give a relative binding affinity.
The most preferred antibody of this invention, MoAb 276-1, has an IC₅₀ of 537 nM for 5-dihydrotestosterone, while an IC₅₀ of 4568 nM was obtained for testosterone. This antibody, therefore, is 8.5 times more specific for 5-dihydrotestosterone than for testosterone. The hybridoma producing the monoclonal antibody MoAb 276-1 is available from the American Type Culture […] (ATCC) in Rockville, Maryland, 20852 under accession number ATCC HB 11410.

The structures appear in SMILES notation.

As to `Cc1ccc2c(c1)CC[C@@H]1[C@@H]2CCC(=O)N1C` (racemic) [trans-dl-4,8-dimethyl-1,2,3,4,4a,5,6,10b-octahydrobenzo-[f]quinolin-3-one], the IC₁₀₀ in assay [1] turned out to be 0.3 µM. On to `C[C@]12CCC(=O)C[C@@H]1CC[C@@H]1[C@@H]2CC[C@]2(C)[C@@H](O)CC[C@@H]12` [5-dihydrotestosterone, 17β-hydroxy-5α-androstan-3-one], for which the IC50 in assay [2] amounted to 537 nM. In assay [2] (ratio of IC₅₀ of testosterone to IC₅₀ of 5-dihydrotestosterone), the “times more specific for 5-dihydrotestosterone than for testosterone” value is given as 8.5 times. For `C[C@]12CC[C@H]3[C@@H](CCC4=CC(=O)CC[C@@]43C)[C@@H]1CC[C@@H]2O` [testosterone], the IC50 in assay [2] is 4570 nM.
